From patent publication US20230295212A1 (ROME Therapeutics, Inc., priority 2022, published 2023)

What follows are compounds tested against T1, LINE1 reverse transcriptase (Homo sapiens, UniProt O00370) (assay: Stable artificial-intron Cis LINE1 reporter assay (HeLa Tet-On 3G, Firefly luciferase)). Conditions: HeLa L1 artificial-intron reporter cells, doxycycline 500 ng/mL, 72 h, class symbols.
T1 construct: expressed in transfected cells; host or cells: HeLa Tet-On 3G (Takara, cat no 631183)
Format: cell-based
In short: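 HeLa Tet-On 3G clone stably carrying a bi-directional doxycycline-inducible artificial-intron LINE1 reporter, plated at 8,000 cells/well onto serially diluted compound. Expression induced with 500 ng/mL doxycycline (final); Firefly luciferase luminescence (Dual-Glo) read 72 h after plating as LINE1 activity.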

T1 sequence (O00370 whole entry, looked up): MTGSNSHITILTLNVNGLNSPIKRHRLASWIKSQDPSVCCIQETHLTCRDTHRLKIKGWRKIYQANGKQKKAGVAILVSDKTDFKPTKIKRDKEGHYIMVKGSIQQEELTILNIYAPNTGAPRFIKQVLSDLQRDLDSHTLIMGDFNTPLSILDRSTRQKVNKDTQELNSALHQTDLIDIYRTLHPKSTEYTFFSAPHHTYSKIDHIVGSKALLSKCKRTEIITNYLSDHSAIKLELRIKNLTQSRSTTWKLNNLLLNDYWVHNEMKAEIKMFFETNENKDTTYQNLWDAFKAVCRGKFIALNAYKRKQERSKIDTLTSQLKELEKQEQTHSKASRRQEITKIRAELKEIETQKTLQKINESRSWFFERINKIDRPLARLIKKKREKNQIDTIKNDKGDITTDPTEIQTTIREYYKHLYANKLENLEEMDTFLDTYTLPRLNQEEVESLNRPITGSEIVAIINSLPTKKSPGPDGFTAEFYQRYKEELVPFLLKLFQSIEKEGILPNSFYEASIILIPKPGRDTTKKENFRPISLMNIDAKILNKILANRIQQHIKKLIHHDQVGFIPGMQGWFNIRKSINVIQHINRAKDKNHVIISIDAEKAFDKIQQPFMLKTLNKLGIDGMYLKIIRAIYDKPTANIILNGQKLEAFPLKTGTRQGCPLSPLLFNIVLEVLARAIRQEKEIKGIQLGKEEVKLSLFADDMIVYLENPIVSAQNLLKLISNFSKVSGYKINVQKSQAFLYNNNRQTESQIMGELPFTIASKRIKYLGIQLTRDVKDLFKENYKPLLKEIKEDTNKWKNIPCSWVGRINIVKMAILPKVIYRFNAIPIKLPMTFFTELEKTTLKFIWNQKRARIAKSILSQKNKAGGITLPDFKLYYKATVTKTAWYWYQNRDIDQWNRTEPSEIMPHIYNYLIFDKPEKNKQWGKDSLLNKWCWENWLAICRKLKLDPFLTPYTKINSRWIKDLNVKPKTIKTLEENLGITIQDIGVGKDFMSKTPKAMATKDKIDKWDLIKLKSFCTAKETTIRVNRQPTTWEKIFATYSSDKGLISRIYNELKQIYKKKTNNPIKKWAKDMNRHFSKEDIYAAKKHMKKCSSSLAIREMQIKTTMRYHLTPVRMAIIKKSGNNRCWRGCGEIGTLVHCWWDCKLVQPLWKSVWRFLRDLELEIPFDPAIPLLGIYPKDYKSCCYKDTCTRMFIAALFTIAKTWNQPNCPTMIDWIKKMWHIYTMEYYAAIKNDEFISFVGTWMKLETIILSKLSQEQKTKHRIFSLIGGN

Compound	IC50 [nM]
[N-]=[N+]=N[C@]1(CO)O[C@@H](c2cc(I)c3c(N)ncnn23)C[C@@H]1O [Compound 161, (2R,3S,5R)-5-(4-amino-5-iodopyrrolo[2,1-f][1,2,4]triazin-7-yl)-2-azido-2-(hydroxymethyl)tetrahydrofuran-3-ol]	50 to 100
C=C=C[C@]1(CO)O[C@@H](n2cnc3c(N)nc(F)nc32)C[C@@H]1O [Compound 164, (2R,3S,5R)-5-(6-amino-2-fluoropurin-9-yl)-2-(hydroxymethyl)-2-(propa-1,2-dien-1-yl)oxolan-3-ol]	250 to 1000
CC(C)C(=O)OC[C@@]1(CCl)O[C@@H](n2cc(F)c(N)nc2=O)[C@@H](F)[C@@H]1OC(=O)C(C)C [Compound 173, (2R,3R,4S,5R)-5-(4-amino-5-fluoro-2-oxopyrimidin-1(2H)-yl)-2-(chloromethyl)-4-fluoro-2-((isobutyryloxy)methyl)tetrahydrofuran-3-yl isobutyrate]	250 to 1000
Cc1cn([C@@H]2O[C@@](CO)(CCl)[C@@H](O)[C@@H]2F)c(=O)[nH]c1=O [Compound 176]	> 1000
Cc1cn([C@@H]2O[C@@](CO)(N=[N+]=[N-])[C@@H](O)[C@@H]2F)c(=O)[nH]c1=O [Compound 178, 1-((2R,3S,4R,5R)-5-azido-3-fluoro-4-hydroxy-5-(hydroxymethyl)tetrahydrofuran-2-yl)-5-methylpyrimidine-2,4(1H,3H)-dione]	50 to 100

The next lines start with the values.

IC50 [nM]	Compound
≤ 50	Nc1ccn([C@@H]2O[C@@](CO)(CBr)[C@@H](O)[C@@H]2F)c(=O)n1 [Compound 172]
≤ 50	[2H]C([2H])(Cl)[C@]1(CO)O[C@@H](n2cc(F)c(N)nc2=O)[C@@H](F)[C@@H]1O [Compound 175, 4-amino-1-((2R,3S,4R,5R)-5-(chloromethyl-d2)-3-fluoro-4-hydroxy-5-(hydroxymethyl)tetrahydrofuran-2-yl)-5-fluoropyrimidin-2(1H)-one]
> 1000	Nc1nc(=O)n([C@@H]2OC(CO)(CO)[C@@H](O)[C@@H]2F)cc1F [Compound 177, 4-amino-5-fluoro-1-((2R,3S,4R)-3-fluoro-4-hydroxy-5,5-bis(hydroxymethyl)tetrahydrofuran-2-yl) pyrimidin-2(1H)-one]

Same assay, conditions: HeLa L1 artificial-intron reporter cells, doxycycline 500 ng/mL, 72 h, numeric bounds

Compound	IC50 [nM]
NC(=O)[C@]1(CO)O[C@@H](n2cc(F)c(N)nc2=O)[C@@H](F)[C@@H]1O [Compound 138, (2R,3R,4S,5R)-5-(4-amino-5-fluoro-2-oxopyrimidin-1-yl)-4-fluoro-3-hydroxy-2-(hydroxymethyl)oxolane-2-carboxamide]	> 30000
CC(O)[C@]1(CO)O[C@@H](n2cc(F)c(=O)[nH]c2=O)[C@@H](F)[C@@H]1O (stereo partly drawn) [Compound 162, 5-fluoro-1-[(2R,3S,4R,5S)-3-fluoro-4-hydroxy-5-(1-hydroxyethyl)-5-(hydroxymethyl)oxolan-2-yl]-3H-pyrimidine-2,4-dione]	> 30000
O=c1[nH]c(=O)n([C@@H]2O[C@@](CO)(CCl)[C@@H](O)[C@@H]2F)cc1F [Compound 163, 1-[(2R,3S,4R,5R)-5-(chloromethyl)-3-fluoro-4-hydroxy-5-(hydroxymethyl)oxolan-2-yl]-5-fluoro-3H-pyrimidine-2,4-dione]	> 30000
CC(C)C(=O)OC[C@@]1(CCl)O[C@@H](n2ncc(N)nc2=O)C[C@@H]1OC(=O)C(C)C [Compound 174, (2R,3S,5R)-5-(5-amino-3-oxo-1,2,4-triazin-2(3H)-yl)-2-(chloromethyl)-2-((isobutyryloxy)methyl)tetrahydrofuran-3-yl isobutyrate]	> 30000

Now from value to compound:

IC50 [nM]	Compound
> 30000	NC[C@]1(CO)O[C@@H](n2cc(F)c(N)nc2=O)[C@@H](F)[C@@H]1O [Compound 139, 4-amino-1-[(2R,3S,4R,5R)-5-(aminomethyl)-3-fluoro-4-hydroxy-5-(hydroxymethyl)oxolan-2-yl]-5-fluoropyrimidin-2-one]
> 30000	N#C[C@]1(CO)O[C@@H](n2cc(F)c(N)nc2=O)[C@@H](F)[C@@H]1O [Compound 166]
